Data set [1] deals with T1, Solute carrier organic anion transporter family member 1A1 (Rattus norvegicus, UniProt P46720).
T1 sequence (P46720 whole entry): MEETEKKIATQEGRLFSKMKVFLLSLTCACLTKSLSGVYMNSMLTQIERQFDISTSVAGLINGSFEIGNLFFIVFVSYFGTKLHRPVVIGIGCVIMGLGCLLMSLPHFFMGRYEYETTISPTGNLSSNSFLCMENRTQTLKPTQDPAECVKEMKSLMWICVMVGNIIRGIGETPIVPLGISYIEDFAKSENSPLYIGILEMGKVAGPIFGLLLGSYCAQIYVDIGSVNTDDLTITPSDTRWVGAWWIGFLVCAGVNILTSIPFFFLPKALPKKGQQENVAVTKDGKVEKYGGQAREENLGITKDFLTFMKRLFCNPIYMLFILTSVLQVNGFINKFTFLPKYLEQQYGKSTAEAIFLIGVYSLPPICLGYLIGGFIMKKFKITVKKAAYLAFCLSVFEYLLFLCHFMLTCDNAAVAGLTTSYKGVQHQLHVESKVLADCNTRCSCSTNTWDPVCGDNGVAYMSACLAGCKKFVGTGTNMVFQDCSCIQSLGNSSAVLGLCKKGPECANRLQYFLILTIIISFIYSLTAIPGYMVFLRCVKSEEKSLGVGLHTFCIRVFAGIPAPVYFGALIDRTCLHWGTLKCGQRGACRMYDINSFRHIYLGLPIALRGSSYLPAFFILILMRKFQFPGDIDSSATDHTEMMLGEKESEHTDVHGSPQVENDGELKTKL
The data set can be described thus: TP_TRANSPORTER: Northern blot in vivo, kidney of SD rat. The class given is functional, organism-based, Sprague-Dawley.

The target in data set [2] is T1, Solute carrier organic anion transporter family member 1A1. The experiment in a line: TP_TRANSPORTER: Northern blot. The class given is functional.

The structures appear in SMILES notation.

Turning to `C[C@]12CC[C@H]3[C@@H](CCC4=CC(=O)CC[C@@]43C)[C@@H]1CC[C@@H]2O` [TESTOSTERONE], in data set [1], the Activity result is “inducer [+]”. For `C[C@]12CC[C@@H]3c4ccc(O)cc4CC[C@H]3[C@@H]1CC[C@@H]2O` [ESTRADIOL], the Activity entry in data set [2] is “inducer [+]”.

(Values after ChEMBL document CHEMBL2073813, “Regulation of renal oatp mRNA expression by testosterone” (Am J Physiol, 1996).)
